Data: patent publication US8481584B2, “1H-thieno[2,3-c]pyrazole derivatives useful as kinase inhibitors” (Nerviano Medical Sciences S.R.L., priority 2004, dated 2013)

Biological target: T1, Aurora-2 (Homo sapiens, UniProt O14965)
T1 sequence (O14965 1-403): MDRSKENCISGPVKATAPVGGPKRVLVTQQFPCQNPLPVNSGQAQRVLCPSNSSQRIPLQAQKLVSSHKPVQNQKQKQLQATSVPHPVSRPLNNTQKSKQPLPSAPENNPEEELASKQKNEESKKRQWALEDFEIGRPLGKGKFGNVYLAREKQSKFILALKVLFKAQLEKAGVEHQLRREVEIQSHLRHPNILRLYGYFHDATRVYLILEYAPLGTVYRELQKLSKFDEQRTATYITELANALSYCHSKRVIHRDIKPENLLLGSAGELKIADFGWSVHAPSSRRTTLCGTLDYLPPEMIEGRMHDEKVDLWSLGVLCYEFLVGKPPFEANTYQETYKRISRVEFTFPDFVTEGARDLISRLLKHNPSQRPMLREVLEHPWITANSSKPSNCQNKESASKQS
Assay: Inhibition assay of Aurora-2 activity (SPA technology)
Type: biochemical
Conditions: screened according to the methods of the pharmacology section; read-out: IC50 values for Aurora-2 inhibition
Description: The inhibiting activity and the potency of selected compounds is determined through a method of assay based on the use of the SPA technology (Amersham Pharmacia Biotech).
The assay consists of the transfer of radioactivity labelled phosphate moiety by the kinase to a biotinylated substrate. The resulting 33P-labelled biotinylated product is allowed to bind to streptavidin-coated SPA beads (biotin capacity 130 pmol/mg), and light emitted was measured in a scintillation counter.
Inhibition Assay of Aurora-2 Activity
After 60 minutes at room temperature incubation, reaction was stopped and biotinylated peptide captured by adding 100 μl of bead suspension.
Stratification: 100 μl of CsCl2 5 M were added to each well and let stand 4 hour before radioactivity was counted in the Top-Count instrument.
Experimental data were analyzed by the computer program GraphPad Prizm using the four parameter logistic equation: y=bottom+(top−bottom)/(1+10^((logIC50−x)*slope)) where x is the logarithm of the inhibitor concentration, y is the response; y starts at bottom and goes to top with a sigmoid shape.

CC(C)(NC(=O)c1cc2c(NC(=O)c3ccc(N4CCOCC4)cc3)n[nH]c2s1)c1ccncc1 [Compound 138, 3-(4-Morpholin-4-yl-benzoylamino)-1H-thieno[2,3-c]pyrazole-5-carboxylic acid (1-methyl-1-pyridin-4-yl-ethyl)-amide]
IC50: < 20 nM

O=C(Nc1n[nH]c2sc(C(=O)N[C@H](CN3CCCC3)c3ccccc3)cc12)c1cccs1 [Compound 19, N-[(1S)-1-phenyl-2-pyrrolidin-1-ylethyl]-3-[(thien-2-ylcarbonyl)amino]-1H-thieno[2,3-c]pyrazole-5-carboxamide]
IC50: < 20 nM

C[C@](CN1CCOCC1)(NC(=O)c1cc2c(NC(=O)c3ccc(N4CCOCC4)cc3)n[nH]c2s1)c1ccccc1 [Compound 137, 3-(4-Morpholin-4-yl-benzoylamino)-1H-thieno[2,3-c]pyrazole-5-carboxylic acid ((S)-1-methyl-2-morpholin-4-yl-1-phenyl-ethyl)-amide]
IC50: < 20 nM

CC(C)(NC(=O)c1cc2c(NC(=O)c3ccc(CN4CCCC4)cc3)n[nH]c2s1)c1ccc(F)cc1 [Compound 58, 3-(4-Pyrrolidin-1-ylmethyl-benzoylamino)-1H-thieno[2,3-c]pyrazole-5-carboxylic acid [1-(4-fluoro-phenyl)-1-methyl-ethyl]-amide]
IC50: < 20 nM

CC(C)(NC(=O)c1cc2c(NC(=O)c3ccc(CN4CCS(=O)(=O)CC4)cc3)n[nH]c2s1)c1ccccc1 [Compound 41, 3-[4-(1,1-Dioxo-1-thiomorpholin-4-ylmethyl)-benzoylamino]-1H-thieno[2,3-c]pyrazole-5-carboxylic acid(1-methyl-1-phenyl-ethyl)-amide]
IC50: < 20 nM

CC(C)(NC(=O)c1cc2c(NC(=O)c3ccc(N4CCOCC4)cc3)n[nH]c2s1)c1cccc(F)c1 [Compound 149, 3-(4-Morpholin-4-yl-benzoylamino)-1H-thieno[2,3-c]pyrazole-5-carboxylic acid [1-(3-fluoro-phenyl)-1-methyl-ethyl]-amide]
IC50: < 20 nM

CC[C@@H](NC(=O)c1cc2c(NC(=O)c3cccs3)n[nH]c2s1)c1ccccc1 [Compound 20, N-[(1R)-1-phenylpropyl]-3-[(thien-2-ylcarbonyl)amino]-1H-thieno[2,3-c]pyrazole-5-carboxamide]
IC50: < 20 nM

CC(C)(NC(=O)c1cc2c(NC(=O)c3ccc(S(C)(=O)=O)cc3)n[nH]c2s1)c1ccccc1 [Compound 143, 3-(4-Methanesulfonyl-benzoylamino)-1H-thieno[2,3-c]pyrazole-5-carboxylic acid(1-methyl-1-phenyl-ethyl)-amide]
IC50: < 20 nM

O=C(Nc1n[nH]c2sc(C(=O)N[C@H](CN3CCOCC3)c3ccccc3)cc12)c1cccs1 [Compound 15, N-[(1S)-2-morpholin-4-yl-1-phenylethyl]-3-[(thien-2-ylcarbonyl)amino]-1H-thieno[2,3-c]pyrazole-5-carboxamide]
IC50: < 20 nM

CC(C)(NC(=O)c1cc2c(NC(=O)c3ccc(CN4CCOCC4)cc3)n[nH]c2s1)c1ccccc1 [Compound 38, 3-(4-Morpholin-4-ylmethyl-benzoylamino)-1H-thieno[2,3-c]pyrazole-5-carboxylic acid (1-methyl-1-phenyl-ethyl)-amide]
IC50: < 20 nM

CN1CCN(Cc2ccc(C(=O)Nc3n[nH]c4sc(C(=O)NC(C)(C)c5ccccc5)cc34)cc2)CC1 [Compound 27, N-(1-methyl-1-phenylethyl)-3-({4-[(4-methylpiperazin-1-yl)methyl]benzoyl}amino)-1H-thieno[2,3-c]pyrazole-5-carboxamide]
IC50: < 20 nM

C[C@@H](NC(=O)c1cc2c(NC(=O)c3cccs3)n[nH]c2s1)c1ccc(F)cc1 [Compound 17, N-[(1R)-1-(4-fluorophenyl)ethyl]-3-[(thien-2-ylcarbonyl)amino]-1H-thieno[2,3-c]pyrazole-5-carboxamide]
IC50: < 20 nM

CC(C)N(C)Cc1ccc(C(=O)Nc2n[nH]c3sc(C(=O)NC(C)(C)c4ccccc4)cc23)cc1 [Compound 64, 3-{4-[(Isopropyl-methyl-amino)-methyl]benzoylamino}-1H-thieno[2,3-c]pyrazole-5-carboxylic acid (1-methyl-1-phenyl-ethyl)-amide]
IC50: < 20 nM

Cn1cccc1C(=O)Nc1n[nH]c2sc(C(=O)NC3(c4ccccc4)CC3)cc12 [Compound 22, 3-{[(1-methyl-1H-pyrrol-2-yl)carbonyl]amino}-N-(1-phenylcyclopropyl)-1H-thieno[2,3-c]pyrazole-5-carboxamide]
IC50: < 20 nM

CN1CCN(c2ccc(C(=O)Nc3n[nH]c4sc(C(=O)NC(C)(C)c5cccc(F)c5)cc34)cc2)CC1 [Compound 142, 3-[4-(4-Methyl-piperazin-1-yl)-benzoylamino]-1H-thieno[2,3-c]pyrazole-5-carboxylic acid [1-(3-fluoro-phenyl)-1-methyl-ethyl]-amide]
IC50: < 20 nM

COc1cccc(C(C)(C)NC(=O)c2cc3c(NC(=O)c4ccc(N5CCOCC5)cc4)n[nH]c3s2)c1 [Compound 140, 3-(4-Morpholin-4-yl-benzoylamino)-1H-thieno[2,3-c]pyrazole-5-carboxylic acid [1-(3-methoxy-phenyl)-1-methyl-ethyl]-amide]
IC50: < 20 nM

CC(C)(NC(=O)c1cc2c(NC(=O)c3ccc(CN4CCC(F)CC4)cc3)n[nH]c2s1)c1ccccc1 [Compound 46]
IC50: < 20 nM

CN1CCN(c2ccc(C(=O)Nc3n[nH]c4sc(C(=O)NC(C)(C)c5ccccc5F)cc34)cc2)CC1 [Compound 141, 3-[4-(4-Methyl-piperazin-1-yl)-benzoylamino]-1H-thieno[2,3-c]pyrazole-5-carboxylic acid[1-(2-fluoro-phenyl)-1-methyl-ethyl]amide]
IC50: < 20 nM

CN1CCN(c2ccc(C(=O)Nc3n[nH]c4sc(C(=O)NC5(c6ccccc6)CC5)cc34)cc2)CC1 [Compound 35, 3-{[4-(4-methylpiperazin-1-yl)benzoyl]amino}-N-(1-phenylcyclopropyl)-1H-thieno[2,3-c]pyrazole-5-carboxamide]
IC50: < 20 nM

CC(C)(NC(=O)c1cc2c(NC(=O)c3ccc(CN4CCCC4)cc3)n[nH]c2s1)c1ccccc1 [Compound 37, 3-(4-Pyrrolidin-1-ylmethyl-benzoylamino)-1H-thieno[2,3-c]pyrazole-5-carboxylic acid (1-methyl-1-phenyl-ethyl)-amide]
IC50: < 20 nM

O=C(Nc1n[nH]c2sc(C(=O)NC3(c4ccccc4)CC3)cc12)c1ccco1 [Compound 23, 3-(2-furoylamino)-N-(1-phenylcyclopropyl)-1H-thieno[2,3-c]pyrazole-5-carboxamide]
IC50: < 20 nM

O=C(Nc1n[nH]c2sc(C(=O)NC3(c4ccccc4)CC3)cc12)c1cccs1 [Compound 18, N-(1-phenylcyclopropyl)-3-[(thien-2-ylcarbonyl)amino]-1H-thieno[2,3-c]pyrazole-5-carboxamide]
IC50: < 20 nM

CC(C)(NC(=O)c1cc2c(NC(=O)c3cccs3)n[nH]c2s1)c1cccc(F)c1 [Compound 124, 3-[(Thiophene-2-carbonyl)-amino]-1H-thieno[2,3-c]pyrazole-5-carboxylic acid [1-(3-fluoro-phenyl)-1-methyl-ethyl]-amide]
IC50: < 20 nM

CC(C)(NC(=O)c1cc2c(NC(=O)c3ccc(CN4CCOCC4)cc3)n[nH]c2s1)c1cccc(F)c1 [Compound 42, 3-(4-Morpholin-4-ylmethyl-benzoylamino)-1H-thieno[2,3-c]pyrazole-5-carboxylic acid [1-(3-fluoro-phenyl)-1-methyl-ethyl]-amide]
IC50: < 20 nM

CC(C)(NC(=O)c1cc2c(NC(=O)c3ccc(CN4CCCCC4)cc3)n[nH]c2s1)c1ccc(F)cc1 [Compound 59, 3-(4-Piperidin-1-ylmethyl-benzoylamino)-1H-thieno[2,3-c]pyrazole-5-carboxylic acid [1-(4-fluoro-phenyl)-1-methyl-ethyl]-amide]
IC50: < 20 nM

CC(C)(NC(=O)c1cc2c(NC(=O)c3ccc(N4CCOCC4)cc3)n[nH]c2s1)c1ccccc1F [Compound 148, 3-(4-Morpholin-4-yl-benzoylamino)-1H-thieno[2,3-c]pyrazole-5-carboxylic acid [1-(2-fluoro-phenyl)-1-methyl-ethyl]-amide]
IC50: < 20 nM

CC[C@@H](NC(=O)c1cc2c(NC(=O)c3ccc(N4CCOCC4)cc3)n[nH]c2s1)c1ccccc1 [Compound 4, 3-[(4-morpholin-4-ylbenzoyl)amino]-N-[(1R)-1-phenylpropyl]-1H-thieno[2,3-c]pyrazole-5-carboxamide]
IC50: < 20 nM

CN1CCN(c2ccc(C(=O)Nc3n[nH]c4sc(C(=O)NC(C)(C)c5ccc(F)cc5)cc34)cc2)CC1 [Compound 139, 3-[4-(4-Methyl-piperazin-1-yl)-benzoylamino]-1H-thieno[2,3-c]pyrazole-5-carboxylic acid [1-(4-fluoro-phenyl)-1-methyl-ethyl]amide]
IC50: < 20 nM

O=C(Nc1n[nH]c2sc(C(=O)NC3(c4ccccc4)CC3)cc12)c1ccc(F)cc1 [Compound 7, 3-[(4-fluorobenzoyl)amino]-N-(1-phenylcyclopropyl)-1H-thieno[2,3-c]pyrazole-5-carboxamide]
IC50: < 20 nM
